# How the values were obtained:
# [1] = Oral bioavailability in rat plasma at 2 mg/kg; format: ADME, organism-based
# [2] = molecular target: T1, Muscarinic acetylcholine receptor M4 (Homo sapiens) (UniProt P08173); experiment: Agonist activity at human muscarinic M4 receptor expressed in BHK-21 cells coexpressing Galpha16 subunit assessed as increase of acetylcholine-induced calcium flux at 10 uM by FLIPR assay relative to acetylcholine; format: functional, cell-based
# T1 sequence (whole entry): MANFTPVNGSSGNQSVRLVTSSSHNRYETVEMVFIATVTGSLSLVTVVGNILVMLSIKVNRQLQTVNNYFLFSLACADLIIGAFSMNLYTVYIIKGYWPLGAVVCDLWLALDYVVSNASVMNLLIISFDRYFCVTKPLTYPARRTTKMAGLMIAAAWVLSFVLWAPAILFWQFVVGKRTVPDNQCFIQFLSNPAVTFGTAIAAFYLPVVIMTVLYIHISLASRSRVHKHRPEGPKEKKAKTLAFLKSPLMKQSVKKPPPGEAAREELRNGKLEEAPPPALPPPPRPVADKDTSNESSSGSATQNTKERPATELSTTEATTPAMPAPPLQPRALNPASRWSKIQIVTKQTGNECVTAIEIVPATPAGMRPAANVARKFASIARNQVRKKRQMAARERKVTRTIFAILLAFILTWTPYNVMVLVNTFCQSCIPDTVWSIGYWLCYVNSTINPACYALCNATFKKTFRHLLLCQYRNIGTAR
# D(1A) dopamine receptor = D(1A) dopamine receptor (Homo sapiens, UniProt P21728); experiment: Binding affinity to human dopamine D1 receptor by radioligand displacement assay
# D(1A) dopamine receptor, sequence (P21728 whole entry): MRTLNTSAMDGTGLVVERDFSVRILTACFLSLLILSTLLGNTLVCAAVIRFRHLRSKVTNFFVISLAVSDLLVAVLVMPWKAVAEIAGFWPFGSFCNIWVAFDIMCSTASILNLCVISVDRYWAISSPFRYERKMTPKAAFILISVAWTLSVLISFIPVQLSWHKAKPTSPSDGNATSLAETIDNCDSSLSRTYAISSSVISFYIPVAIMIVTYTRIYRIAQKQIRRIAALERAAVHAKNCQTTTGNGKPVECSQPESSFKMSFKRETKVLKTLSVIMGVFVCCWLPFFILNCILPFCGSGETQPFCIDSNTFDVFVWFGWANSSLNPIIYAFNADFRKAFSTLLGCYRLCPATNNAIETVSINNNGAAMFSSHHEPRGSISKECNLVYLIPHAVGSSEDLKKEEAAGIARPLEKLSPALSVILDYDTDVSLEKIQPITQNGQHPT
# [3] = molecular target: T2, Muscarinic acetylcholine receptor M5 (Homo sapiens, UniProt P08912); experiment: biochemical
# T2 sequence (P08912 whole entry): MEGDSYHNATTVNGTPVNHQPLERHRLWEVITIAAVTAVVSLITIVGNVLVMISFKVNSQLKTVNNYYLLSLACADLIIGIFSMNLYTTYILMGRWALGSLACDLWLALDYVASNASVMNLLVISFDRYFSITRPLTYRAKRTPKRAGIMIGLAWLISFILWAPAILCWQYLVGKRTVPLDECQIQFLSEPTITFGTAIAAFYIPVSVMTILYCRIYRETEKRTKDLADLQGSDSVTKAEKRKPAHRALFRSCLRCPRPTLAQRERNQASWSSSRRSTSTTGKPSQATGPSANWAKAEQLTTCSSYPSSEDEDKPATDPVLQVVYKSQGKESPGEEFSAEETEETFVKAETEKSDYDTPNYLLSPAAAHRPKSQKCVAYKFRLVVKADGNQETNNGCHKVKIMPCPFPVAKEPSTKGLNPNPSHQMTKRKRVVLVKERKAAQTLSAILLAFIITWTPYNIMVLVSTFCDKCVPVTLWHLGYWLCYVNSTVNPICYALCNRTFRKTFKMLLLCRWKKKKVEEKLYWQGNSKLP
# Description: Displacement of [3H]-4-DAMP from human muscarinic M5 receptor expressed in BHK-21 cells
# [4] = Binding affinity to GABAA receptor by radioligand displacement assay
# D(3) dopamine receptor = D(3) dopamine receptor (Homo sapiens, UniProt P35462); experiment: Binding affinity to human dopamine D3 receptor by radioligand displacement assay
# [5] = molecular target: Tyrosine-protein kinase Lyn (Homo sapiens, UniProt P07948); experiment: Binding affinity to Lyn by enzyme assay
# Tyrosine-protein kinase Lyn, sequence (P07948 whole entry): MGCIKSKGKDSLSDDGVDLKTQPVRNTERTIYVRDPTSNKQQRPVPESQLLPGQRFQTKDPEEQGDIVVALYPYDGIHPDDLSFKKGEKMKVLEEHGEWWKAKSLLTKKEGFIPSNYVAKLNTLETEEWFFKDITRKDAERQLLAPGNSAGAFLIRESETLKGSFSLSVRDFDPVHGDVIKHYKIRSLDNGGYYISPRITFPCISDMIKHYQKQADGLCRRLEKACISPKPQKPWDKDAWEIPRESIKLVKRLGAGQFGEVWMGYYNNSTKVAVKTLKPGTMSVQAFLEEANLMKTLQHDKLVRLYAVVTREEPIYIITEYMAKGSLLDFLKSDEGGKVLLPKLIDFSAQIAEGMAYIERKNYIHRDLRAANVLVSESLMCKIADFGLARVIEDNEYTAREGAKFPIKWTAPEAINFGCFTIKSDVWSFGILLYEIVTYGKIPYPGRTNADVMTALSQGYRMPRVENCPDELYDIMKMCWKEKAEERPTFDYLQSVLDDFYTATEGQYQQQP
# Nischarin = Nischarin (Homo sapiens, UniProt Q9Y2I1); experiment: Binding affinity to I1 receptor by radioligand displacement assay
# Substance-P receptor = Substance-P receptor (Homo sapiens, UniProt P25103); experiment: Binding affinity to human NK1 receptor by radioligand displacement assay
# Substance-P receptor, sequence (P25103 whole entry): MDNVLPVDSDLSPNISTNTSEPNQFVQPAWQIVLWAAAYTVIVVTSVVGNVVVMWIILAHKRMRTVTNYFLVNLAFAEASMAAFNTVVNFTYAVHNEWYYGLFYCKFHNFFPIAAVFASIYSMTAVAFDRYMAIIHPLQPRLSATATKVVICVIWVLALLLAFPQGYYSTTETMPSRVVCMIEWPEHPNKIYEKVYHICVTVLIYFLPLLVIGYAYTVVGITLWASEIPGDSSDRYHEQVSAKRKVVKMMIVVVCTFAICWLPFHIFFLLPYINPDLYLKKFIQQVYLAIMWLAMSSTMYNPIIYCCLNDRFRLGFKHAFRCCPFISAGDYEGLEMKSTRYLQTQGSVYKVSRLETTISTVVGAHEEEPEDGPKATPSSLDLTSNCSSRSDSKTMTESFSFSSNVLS
# Phosphodiesterase 4 = Phosphodiesterase 4 (Homo sapiens, UniProt P27815+Q08499+Q07343+Q08493); experiment: Binding affinity to human PDE4 rolipram binding site by radioligand displacement assay; format: protein assay
# Adenosine receptor A3 = Adenosine receptor A3 (Homo sapiens, UniProt P0DMS8); experiment: Binding affinity to human adenosine A3 receptor by radioligand displacement assay
# [6] = Terminal half life in rat plasma at 1 mg/kg, iv and 2 mg/kg, po; format: ADME, organism-based
# [7] = molecular target: 5-hydroxytryptamine receptor 2A (Homo sapiens, UniProt P28223); experiment: Binding affinity to human 5-HT2A agonist site receptor by radioligand displacement assay
# 5-hydroxytryptamine receptor 2A, sequence (P28223 whole entry): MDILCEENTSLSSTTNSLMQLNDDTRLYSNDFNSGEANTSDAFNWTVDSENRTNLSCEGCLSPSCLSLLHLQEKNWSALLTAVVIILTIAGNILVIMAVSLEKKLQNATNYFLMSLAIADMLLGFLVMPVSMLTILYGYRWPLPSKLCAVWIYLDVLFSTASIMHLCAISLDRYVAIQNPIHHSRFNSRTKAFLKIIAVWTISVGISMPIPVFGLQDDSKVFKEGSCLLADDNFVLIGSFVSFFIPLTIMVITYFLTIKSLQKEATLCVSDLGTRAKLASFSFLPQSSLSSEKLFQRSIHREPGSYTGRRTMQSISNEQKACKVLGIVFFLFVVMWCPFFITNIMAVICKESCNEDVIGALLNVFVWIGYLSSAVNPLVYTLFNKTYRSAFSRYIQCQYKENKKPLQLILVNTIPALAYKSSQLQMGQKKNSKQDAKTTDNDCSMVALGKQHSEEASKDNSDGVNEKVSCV
# [8] = Ratio of brain to plasma AUC in Sprague-Dawley rat at 10 mg/kg, sc; format: ADME, organism-based; design: dose 10 mg/kg, route subcutaneous
# [9] = molecular target: High affinity choline transporter 1 (Homo sapiens, UniProt Q9GZV3); experiment: Binding affinity to human choline transporter (CHT1) by radioligand displacement assay
# [10] = Binding affinity to sigma receptor by radioligand displacement assay
# Endothelin-1 receptor = Endothelin-1 receptor (Homo sapiens, UniProt P25101); experiment: Binding affinity to human ETA receptor by radioligand displacement assay
# [11] = molecular target: 5-hydroxytryptamine receptor 3A (Homo sapiens, UniProt P46098); experiment: Binding affinity to human 5-HT3 receptor by radioligand displacement assay
# 5-hydroxytryptamine receptor 3A, sequence (P46098 whole entry): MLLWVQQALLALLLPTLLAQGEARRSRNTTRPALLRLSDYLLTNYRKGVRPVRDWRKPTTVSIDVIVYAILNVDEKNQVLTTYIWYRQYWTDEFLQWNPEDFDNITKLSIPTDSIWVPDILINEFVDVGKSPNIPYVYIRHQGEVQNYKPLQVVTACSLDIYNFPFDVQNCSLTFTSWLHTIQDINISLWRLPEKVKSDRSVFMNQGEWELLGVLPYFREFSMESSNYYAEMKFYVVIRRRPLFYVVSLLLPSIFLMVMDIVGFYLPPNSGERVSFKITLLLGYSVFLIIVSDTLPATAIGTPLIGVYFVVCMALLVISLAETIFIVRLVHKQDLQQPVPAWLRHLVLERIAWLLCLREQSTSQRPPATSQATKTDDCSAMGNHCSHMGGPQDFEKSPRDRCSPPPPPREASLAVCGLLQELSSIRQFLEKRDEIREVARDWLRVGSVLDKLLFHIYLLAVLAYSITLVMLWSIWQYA
# [12] = Binding affinity to adrenergic alpha1 receptor by radioligand displacement assay
# [13] = molecular target: Alpha-2B adrenergic receptor (Homo sapiens, UniProt P18089); experiment: Binding affinity to adrenergic alpha2B receptor by radioligand displacement assay
# Alpha-2B adrenergic receptor, sequence (P18089 whole entry): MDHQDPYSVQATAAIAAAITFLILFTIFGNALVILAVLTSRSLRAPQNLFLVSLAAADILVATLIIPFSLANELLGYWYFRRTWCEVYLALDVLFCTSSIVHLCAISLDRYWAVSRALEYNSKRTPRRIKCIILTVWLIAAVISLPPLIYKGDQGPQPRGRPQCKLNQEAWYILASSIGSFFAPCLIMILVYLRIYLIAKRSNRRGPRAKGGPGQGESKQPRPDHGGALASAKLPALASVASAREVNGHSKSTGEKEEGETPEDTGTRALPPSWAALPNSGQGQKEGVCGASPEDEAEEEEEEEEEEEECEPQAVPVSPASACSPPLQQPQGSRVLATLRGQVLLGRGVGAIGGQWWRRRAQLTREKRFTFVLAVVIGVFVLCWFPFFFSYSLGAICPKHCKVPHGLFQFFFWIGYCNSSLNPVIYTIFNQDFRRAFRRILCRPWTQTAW
# [14] = molecular target: Alpha-1D adrenergic receptor (Homo sapiens, UniProt P25100); experiment: Binding affinity to human adrenergic Alpha-1D receptor by radioligand displacement assay
# [15] = Ratio of brain to plasma AUC in C57/6J mouse at 20 mg/kg, sc; format: ADME, organism-based; design: dose 20 mg/kg, route subcutaneous
# [16] = molecular target: Alpha-1A adrenergic receptor (Homo sapiens, UniProt P35348); experiment: Binding affinity to human adrenergic alpha1A receptor by radioligand displacement assay
# Alpha-1A adrenergic receptor, sequence (P35348 whole entry): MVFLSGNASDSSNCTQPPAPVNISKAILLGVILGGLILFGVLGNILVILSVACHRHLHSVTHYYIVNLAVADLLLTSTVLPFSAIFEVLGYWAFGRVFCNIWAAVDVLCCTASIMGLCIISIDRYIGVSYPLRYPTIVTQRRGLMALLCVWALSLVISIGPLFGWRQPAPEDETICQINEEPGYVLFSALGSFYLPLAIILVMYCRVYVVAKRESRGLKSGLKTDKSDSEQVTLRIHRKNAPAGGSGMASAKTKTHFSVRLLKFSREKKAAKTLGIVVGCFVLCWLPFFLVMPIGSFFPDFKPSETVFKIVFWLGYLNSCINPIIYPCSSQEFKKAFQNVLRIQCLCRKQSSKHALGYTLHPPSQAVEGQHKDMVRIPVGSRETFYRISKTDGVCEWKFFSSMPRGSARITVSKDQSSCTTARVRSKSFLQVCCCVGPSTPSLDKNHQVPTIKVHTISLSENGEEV
# [17] = molecular target: Muscarinic acetylcholine receptor M3 (Homo sapiens, UniProt P20309); experiment: Displacement of [3H]-4-DAMP from human muscarinic M3 receptor expressed in BHK-21 cells; format: cell-based
# [18] = Binding affinity to human muscle-type nicotinic acetylcholine receptor by radioligand displacement assay
# [19] = molecular target: 5-hydroxytryptamine receptor 2B (Homo sapiens, UniProt P41595); experiment: Binding affinity to human 5-HT2B agonist site receptor by radioligand displacement assay
# Substance-K receptor = Substance-K receptor (Homo sapiens, UniProt P21452); experiment: Binding affinity to human NK2 receptor by radioligand displacement assay
# Substance-K receptor, sequence (P21452 whole entry): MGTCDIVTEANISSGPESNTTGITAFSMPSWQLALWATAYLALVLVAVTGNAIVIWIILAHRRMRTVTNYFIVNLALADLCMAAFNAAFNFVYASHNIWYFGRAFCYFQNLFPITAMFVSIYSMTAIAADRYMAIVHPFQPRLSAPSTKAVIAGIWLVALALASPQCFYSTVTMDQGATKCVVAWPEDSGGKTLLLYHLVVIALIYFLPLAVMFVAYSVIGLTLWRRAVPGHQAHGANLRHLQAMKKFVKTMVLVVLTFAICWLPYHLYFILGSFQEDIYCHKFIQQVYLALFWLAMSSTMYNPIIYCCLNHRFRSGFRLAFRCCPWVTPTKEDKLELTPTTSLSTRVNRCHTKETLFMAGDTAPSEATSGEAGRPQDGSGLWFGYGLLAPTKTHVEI
# [20] = Tmax in rat plasma at 2 mg/kg, po; format: ADME, organism-based; design: dose 2 mg/kg, route oral
# [21] = molecular target: Sodium-dependent dopamine transporter (Homo sapiens, UniProt Q01959); experiment: Binding affinity to human dopamine transporter by radioligand displacement assay
# Sodium-dependent dopamine transporter, sequence (Q01959 whole entry): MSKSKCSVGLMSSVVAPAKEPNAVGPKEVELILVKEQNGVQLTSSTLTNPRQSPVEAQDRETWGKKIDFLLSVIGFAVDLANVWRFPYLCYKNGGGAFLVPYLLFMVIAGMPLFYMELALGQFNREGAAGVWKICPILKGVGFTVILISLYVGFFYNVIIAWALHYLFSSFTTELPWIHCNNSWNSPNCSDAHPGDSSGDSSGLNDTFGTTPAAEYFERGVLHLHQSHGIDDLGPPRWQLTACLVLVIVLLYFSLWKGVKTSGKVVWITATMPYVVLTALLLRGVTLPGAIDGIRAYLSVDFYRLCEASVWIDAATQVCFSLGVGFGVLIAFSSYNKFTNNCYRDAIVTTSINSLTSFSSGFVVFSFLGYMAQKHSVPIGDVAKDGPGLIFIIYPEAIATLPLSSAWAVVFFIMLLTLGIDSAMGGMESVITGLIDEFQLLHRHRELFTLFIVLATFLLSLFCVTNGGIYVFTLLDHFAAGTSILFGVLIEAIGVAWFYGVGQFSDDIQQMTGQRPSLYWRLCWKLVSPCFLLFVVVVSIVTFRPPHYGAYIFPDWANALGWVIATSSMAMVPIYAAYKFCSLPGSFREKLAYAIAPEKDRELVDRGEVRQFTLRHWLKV
# [22] = Binding affinity to PDE5 by enzyme assay
# Adenosine receptor A2a = Adenosine receptor A2a (Homo sapiens, UniProt P29274); experiment: Binding affinity to human adenosine A2A receptor by radioligand displacement assay
# D(2) dopamine receptor = D(2) dopamine receptor (Homo sapiens, UniProt P14416); experiment: Binding affinity to human dopamine D2S receptor by radioligand displacement assay
# D(2) dopamine receptor, sequence (P14416 whole entry): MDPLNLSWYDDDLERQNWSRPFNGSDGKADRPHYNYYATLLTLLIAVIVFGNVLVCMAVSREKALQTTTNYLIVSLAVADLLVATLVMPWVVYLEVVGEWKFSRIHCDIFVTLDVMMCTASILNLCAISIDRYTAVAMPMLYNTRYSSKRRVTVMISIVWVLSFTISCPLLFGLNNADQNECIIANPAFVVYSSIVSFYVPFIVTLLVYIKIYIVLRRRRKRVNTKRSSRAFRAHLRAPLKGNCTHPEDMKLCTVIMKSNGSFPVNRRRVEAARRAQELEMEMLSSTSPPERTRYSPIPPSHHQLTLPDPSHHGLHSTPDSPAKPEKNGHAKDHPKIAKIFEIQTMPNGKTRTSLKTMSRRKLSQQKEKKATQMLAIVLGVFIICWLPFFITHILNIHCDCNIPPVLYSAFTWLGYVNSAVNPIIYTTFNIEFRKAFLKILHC
# [23] = molecular target: Urotensin-2 receptor (Homo sapiens) (UniProt Q9UKP6); experiment: Binding affinity to human UT1 receptor by radioligand displacement assay
# [24] = Binding affinity to human delta2 opioid receptor by radioligand displacement assay
structure (smiles),measurement,setting,value
O=C(Cc1ccccc1)NC1CCN(CCCN2C(=O)COc3ccccc32)CC1,bioavailability,[1],4%
same,Emax,[2],6%
same,Ki,D(1A) dopamine receptor,≥ 1000 nM
same,Ki,[3],8900 nM
same,Ki,[4],≥ 1000 nM
same,Ki,D(3) dopamine receptor,≥ 1000 nM
same,Ki,[5],≥ 1000 nM
same,Ki,Nischarin,≥ 1000 nM
same,Ki,Substance-P receptor,≥ 1000 nM
same,Ki,Phosphodiesterase 4,>= 1000 nM
same,Ki,Adenosine receptor A3,≥ 1000 nM
same,half-life,[6],48 min
same,Ki,[7],≥ 1000 nM
same,Kp,[8],0.2
same,Ki,[9],≥ 1000 nM
same,Ki,[10],≥ 1000 nM
same,Ki,Endothelin-1 receptor,≥ 1000 nM
same,Ki,[11],≥ 1000 nM
same,Ki,[12],≥ 1000 nM
same,Ki,[13],≥ 1000 nM
same,Ki,[14],≥ 1000 nM
same,Kp,[15],0.35
same,Ki,[16],260 nM
same,Ki,[17],7000 nM
same,Ki,[18],≥ 1000 nM
same,Ki,[19],≥ 1000 nM
same,Ki,Substance-K receptor,≥ 1000 nM
same,Tmax,[20],48 min
same,Ki,[21],≥ 1000 nM
same,Ki,[22],≥ 1000 nM
same,Ki,Adenosine receptor A2a,≥ 1000 nM
same,Ki,D(2) dopamine receptor,≥ 1000 nM
same,Ki,[23],≥ 1000 nM
same,Ki,[24],≥ 1000 nM

# From ChEMBL document CHEMBL1240489, “Discovery of N-{1-[3-(3-oxo-2,3-dihydrobenzo[1,4]oxazin-4-yl)propyl]piperidin-4-yl}-2-phenylacetamide (Lu AE51090): an allosteric muscarinic M1 receptor agonist with unprecedented selectivity and procognitive potential” (J Med Chem, 2010)
